From ChEMBL document CHEMBL1201862, “PubChem BioAssay data set” (2004)
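Interpolation was linear, between the two tested concentrations surrounding the appropriate level; five concentrations were tested over 48 hours in 96-well plates. GI50 is the concentration that inhibits growth by half.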 Activity calls are given as the source filed them. Rule as the data show it: active = GI50 up to about 1.1 µM and inactive = higher.

How the values were obtained:
Assay in all cases: NCI-60 cell line screen, 48 h
SF-539 = system: SF-539
M14 = system: M14
NCI-H522 = system: NCI-H522
OVCAR-5 = system: OVCAR-5
SN12C = system: SN12C
UACC-62 = system: UACC-62
CAKI-1 = system: CAKI-1
T47D = system: T47D
NCI-H460 = system: NCI-H460
SK-MEL-28 = system: SK-MEL-28
HCT-116 = system: HCT-116
KM12 = system: KM12
TK-10 = system: TK-10
NCI/ADR-RES = system: NCI/ADR-RES
HT-29 = system: HT-29
ACHN = system: ACHN
HOP-92 = system: HOP-92
NCI-H226 = system: NCI-H226
HL-60 = system: HL-60
Malme-3M = system: Malme-3M

Measured: GI50

CC1C(c2ccc3c(c2)OCO3)c2cc3c(cc2OC1N1CCCCC1)OCO3 (stereo unspecified)
inactive: SF-539 50.8 µM | M14 40.2 µM | NCI-H522 31.6 µM | OVCAR-5 > 100 µM | SN12C > 100 µM | UACC-62 88.9 µM | CAKI-1 23.4 µM | T47D 30.7 µM | NCI-H460 77.8 µM | SK-MEL-28 54.8 µM | HCT-116 42.6 µM | KM12 41.9 µM | TK-10 > 100 µM | NCI/ADR-RES 42 µM | HT-29 57.5 µM | ACHN 59.6 µM

O=C(/C=C1/NC(=O)CS1)Nc1ccccc1
inactive: HOP-92 > 100 µM | SF-539 > 100 µM | M14 > 100 µM | NCI-H522 > 100 µM | NCI-H226 > 100 µM | OVCAR-5 > 100 µM | SN12C > 100 µM | UACC-62 > 100 µM | CAKI-1 > 100 µM | NCI-H460 > 100 µM | SK-MEL-28 > 100 µM | HL-60 > 100 µM | HCT-116 > 100 µM | KM12 > 100 µM | TK-10 > 100 µM | Malme-3M 30.8 µM | HT-29 > 100 µM

CC(=O)NC(ON1C(=O)COc2ccccc21)C(Cl)(Cl)Cl (stereo unspecified)
inactive: HOP-92 > 100 µM | SF-539 > 100 µM | M14 > 100 µM | NCI-H522 > 100 µM | NCI-H226 33.4 µM | OVCAR-5 > 100 µM | SN12C > 100 µM | UACC-62 > 100 µM | CAKI-1 > 100 µM | NCI-H460 > 100 µM | SK-MEL-28 > 100 µM | HL-60 > 100 µM | HCT-116 > 100 µM | KM12 > 100 µM | TK-10 > 100 µM | Malme-3M > 100 µM | HT-29 > 100 µM | ACHN > 100 µM

O=C1C2=Nc3ccccc3C(O)(C(=O)O)N2c2ccccc21 (stereo unspecified)
inactive: HOP-92 32.7 µM | SF-539 26.4 µM | NCI-H522 17.6 µM | NCI-H226 > 100 µM | OVCAR-5 34.8 µM | SN12C 28.8 µM | CAKI-1 14.3 µM | NCI-H460 12.2 µM | SK-MEL-28 43.9 µM | HL-60 10.7 µM | HCT-116 20 µM | KM12 26.9 µM | TK-10 81.7 µM | NCI/ADR-RES 29.6 µM | Malme-3M 15 µM | HT-29 21.2 µM | ACHN 26.5 µM

CCOC(=O)C(C(=O)COC(C)(C)C)[C@@H]1C=C[C@H](OC(C)=O)C1 (stereo partly specified)
inactive: SF-539 > 100 µM | M14 > 100 µM | NCI-H226 > 100 µM | OVCAR-5 > 100 µM | SN12C > 100 µM | UACC-62 > 100 µM | CAKI-1 > 100 µM | T47D > 100 µM | NCI-H460 > 100 µM | SK-MEL-28 > 100 µM | HCT-116 > 100 µM | KM12 > 100 µM | NCI/ADR-RES > 100 µM | Malme-3M > 100 µM | HT-29 > 100 µM | ACHN > 100 µM

CC[C@H](NC1=C(Cl)C(=O)c2c(O)ccc(O)c2C1=O)C(=O)OC
inactive: HOP-92 > 10 µM | SF-539 3.44 µM | M14 3.72 µM | NCI-H522 3.53 µM | NCI-H226 > 10 µM | OVCAR-5 > 10 µM | SN12C 3.05 µM | UACC-62 > 10 µM | CAKI-1 > 10 µM | NCI-H460 > 10 µM | HL-60 3.79 µM | HCT-116 2.34 µM | KM12 > 10 µM | TK-10 > 10 µM | NCI/ADR-RES 7.28 µM | Malme-3M 4.28 µM | HT-29 2.78 µM | ACHN > 10 µM

COc1ccc(C(C#N)NNC(=O)Cc2ccccc2)cc1OC (stereo unspecified)
inactive: HOP-92 > 100 µM | SF-539 > 100 µM | M14 > 100 µM | NCI-H522 > 100 µM | NCI-H226 > 100 µM | OVCAR-5 > 100 µM | SN12C > 100 µM | UACC-62 > 100 µM | CAKI-1 > 100 µM | NCI-H460 > 100 µM | SK-MEL-28 > 100 µM | HL-60 > 100 µM | HCT-116 > 100 µM | KM12 > 100 µM | TK-10 > 100 µM | Malme-3M > 100 µM | HT-29 > 100 µM | ACHN > 100 µM

O=c1c(-c2ccccc2)c(SCCO)n(-c2ccccc2)c(=S)n1-c1ccccc1
inactive: M14 > 100 µM | NCI-H522 > 100 µM | NCI-H226 > 100 µM | OVCAR-5 > 100 µM | SN12C > 100 µM | UACC-62 39.7 µM | CAKI-1 > 100 µM | NCI-H460 > 100 µM | SK-MEL-28 > 100 µM | HL-60 > 100 µM | HCT-116 > 100 µM | KM12 > 100 µM | TK-10 > 100 µM | NCI/ADR-RES > 100 µM | Malme-3M > 100 µM | HT-29 > 100 µM | ACHN > 100 µM

CC(C)N/C(=N\C#N)NS(=O)(=O)c1cnccc1NC1CCCCCCC1
inactive: M14 > 100 µM | NCI-H522 > 100 µM | NCI-H226 > 100 µM | OVCAR-5 > 100 µM | SN12C > 100 µM | UACC-62 > 100 µM | CAKI-1 > 100 µM | T47D > 100 µM | SK-MEL-28 > 100 µM | HCT-116 > 100 µM | KM12 > 100 µM | TK-10 > 100 µM | NCI/ADR-RES > 100 µM | Malme-3M > 100 µM | HT-29 > 100 µM | ACHN > 100 µM

Oc1ccc(Cl)cc1/N=N\c1c(O)ccc2ccccc12
inactive: HOP-92 > 100 µM | M14 > 100 µM | NCI-H522 59.4 µM | NCI-H226 > 100 µM | OVCAR-5 > 100 µM | SN12C > 100 µM | UACC-62 > 100 µM | CAKI-1 > 100 µM | SK-MEL-28 > 100 µM | HL-60 78.9 µM | HCT-116 > 100 µM | KM12 > 100 µM | TK-10 > 100 µM | NCI/ADR-RES > 100 µM | Malme-3M 22.2 µM | HT-29 > 100 µM | ACHN > 100 µM

Cc1cc(Cl)ccc1NC(=O)CCCC(=O)C1CCC/C1=N\NC(=O)CC#N (stereo unspecified)
inactive: HOP-92 > 100 µM | SF-539 > 100 µM | M14 > 100 µM | NCI-H522 > 100 µM | NCI-H226 > 100 µM | OVCAR-5 > 100 µM | SN12C > 100 µM | UACC-62 > 100 µM | CAKI-1 > 100 µM | NCI-H460 > 100 µM | SK-MEL-28 > 100 µM | HL-60 > 100 µM | HCT-116 > 100 µM | KM12 > 100 µM | TK-10 > 100 µM | Malme-3M > 100 µM | HT-29 > 100 µM | ACHN > 100 µM

CCOC(=O)C(=O)Nc1c(C)cccc1C(C)C
inactive: HOP-92 > 100 µM | SF-539 > 100 µM | M14 > 100 µM | NCI-H522 > 100 µM | NCI-H226 > 100 µM | OVCAR-5 > 100 µM | SN12C > 100 µM | UACC-62 > 100 µM | CAKI-1 > 100 µM | NCI-H460 > 100 µM | SK-MEL-28 > 100 µM | HL-60 > 100 µM | HCT-116 > 100 µM | KM12 > 100 µM | TK-10 > 100 µM | Malme-3M > 100 µM | HT-29 > 100 µM | ACHN > 100 µM

S=c1oc(CCCCCCCCc2nn(CNc3ccc(Cl)cc3)c(=S)o2)nn1CNc1ccc(Cl)cc1
inactive: HOP-92 > 100 µM | M14 12 µM | NCI-H522 > 100 µM | NCI-H226 > 100 µM | OVCAR-5 60.5 µM | SN12C > 100 µM | UACC-62 3.88 µM | CAKI-1 33.8 µM | NCI-H460 > 100 µM | SK-MEL-28 20.3 µM | HCT-116 > 100 µM | KM12 35.8 µM | TK-10 > 100 µM | NCI/ADR-RES > 100 µM | Malme-3M > 100 µM | HT-29 > 100 µM | ACHN 72.3 µM

Cc1ccc(S(=O)(=O)SCc2ccccc2)cc1
inactive: HOP-92 22.7 µM | SF-539 23.4 µM | M14 17.9 µM | NCI-H522 7.91 µM | NCI-H226 21 µM | OVCAR-5 33.2 µM | SN12C 20.8 µM | UACC-62 29.4 µM | CAKI-1 34.9 µM | NCI-H460 28.5 µM | SK-MEL-28 50 µM | HL-60 2.44 µM | HCT-116 7.6 µM | KM12 25.7 µM | TK-10 > 55.7 µM | Malme-3M 24.4 µM | HT-29 22.9 µM | ACHN 32.8 µM

CC(C)(C)OC(=O)NNC(=O)C1Cc2ccccc2OC1=O (stereo unspecified)
inactive: SF-539 > 100 µM | M14 > 100 µM | NCI-H522 > 100 µM | NCI-H226 > 100 µM | OVCAR-5 > 100 µM | SN12C > 100 µM | UACC-62 > 100 µM | CAKI-1 > 100 µM | NCI-H460 > 100 µM | SK-MEL-28 > 100 µM | HCT-116 > 100 µM | KM12 > 100 µM | TK-10 > 100 µM | NCI/ADR-RES > 100 µM | Malme-3M > 100 µM | HT-29 > 100 µM | ACHN > 100 µM

C[C@]12CCC[C@H](OC=O)C1(O)C[C@H](C(=O)O)CC2 (stereo partly specified)
inactive: HOP-92 > 100 µM | SF-539 > 100 µM | M14 > 100 µM | NCI-H522 > 100 µM | NCI-H226 > 100 µM | OVCAR-5 > 100 µM | SN12C > 100 µM | UACC-62 16.5 µM | CAKI-1 > 100 µM | NCI-H460 > 100 µM | SK-MEL-28 > 100 µM | HL-60 > 100 µM | HCT-116 > 100 µM | KM12 > 100 µM | TK-10 > 100 µM | Malme-3M > 100 µM | HT-29 > 100 µM | ACHN > 100 µM
